Series [1] deals with HBV. The series can be described thus: anti HBV activity, HepG2.117 cell line, intracellular HBV DNA by realtime PCR. In kind it is cell-based. Conditions: HepG2.117 cell line (Tet-off), 3 days of treatment, intracellular HBV DNA quantified by realtime PCR, read-out: HBV-AVE-HepG2.117 EC50. The gist of the method: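 Readout was intracellular HBV DNA by real-time PCR (HBV-specific primers and probe) after 3 days of compound exposure. Serial dilutions were tested in duplicate on HepG2.117 cells, a stable inducible HBV producer in which replication is switched on when doxycycline is absent.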

The nature of series [2]: Cytotoxicity in HepG2 cells, Resazurin assay. To be noted: human, HepG2 cells, TOX-HepG2-4 d CC50 (μM), HepG2 cells incubated for 4 days, viability by Resazurin assay. (In general: Alamar Blue is a resazurin reagent that responds to reducing activity.)
[3] abbreviates: Hepatitis B virus, HepG2.117, 72 h.

Read-outs that look alike come from different tables or passages of the source.

What is called EC50 is the midpoint of the concentration-response curve. As usually defined, the melting point is the temperature of the solid-liquid transition. Usually CC50 stands for the concentration at which the toxic effect on the cells reaches its halfway point. High values mean better tolerance by the cells, low ones harm at low concentration. `Cn1ccnc1CC1(C)COc2c(cn(C)c2C(=O)Nc2ccc(F)c(F)c2)S(=O)(=O)N1` (stereo not drawn) [Compound 173, N-(3,4-difluorophenyl)-3,7-dimethyl-3-[(1-methylimidazol-2-yl)methyl]-1,1-dioxo-2,4-dihydropyrrolo[3,4-b][1,4,5]oxathiazepine-6-carboxamide] gave a melting point of 297.1 °C. In addition, the EC50 in series [1] (setting [3]) came to 17 nM. In series [2], this compound returned a cytotoxic concentration (CC50) at 4 days of over 25 µM.

Consider `Cn1cc2c(c1C(=O)Nc1ccc(F)c(F)c1)OCC(C)(c1ncccn1)NS2(=O)=O` (single isomer, unassigned) [Compound 153a, N-(3,4-difluorophenyl)-3,7-dimethyl-1,1-dioxo-3-pyrimidin-2-yl-2,4-dihydropyrrolo[3,4-b][1,4,5]oxathiazepine-6-carboxamide], for which the melting point came out at 228.3 °C. Besides, the EC50 in series [1] is over 125 nM. This compound also displayed a CC50 at 4 days in series [2] of over 25 µM.

For `Cn1cc2c(c1C(=O)Nc1ccc(F)c(Cl)c1)OCC(C)(Cc1cccnc1)NS2(=O)=O` (stereo not drawn) [Compound 211, N-(3-chloro-4-fluoro-phenyl)-3,7-dimethyl-1,1-dioxo-3-(3-pyridylmethyl)-2,4-dihydropyrrolo[3,4-b][1,4,5]oxathiazepine-6-carboxamide], the melting point is 211.5 °C. In addition, in series [1] (setting [3]), the 50% effective concentration (EC50) amounted to 7 nM. In addition, the 50% cytotoxic concentration (CC50) at 4 days in series [2] is over 25 µM.

`Cn1cc2c(c1C(=O)Nc1ccc(F)c(F)c1)OC[C@@](C)(c1ccccn1)NS2(=O)=O` [Compound 126, (3R)—N-(3,4-difluorophenyl)-3,7-dimethyl-1,1-dioxo-3-(2-pyridyl)-2,4-dihydropyrrolo[3,4-b][1,4,5]oxathiazepine-6-carboxamide] registered a melting point of 270.5 °C. Further, the EC50 in series [1] (setting [3]) worked out at 62 nM. Further, in series [2], the CC50 at 4 days is over 25 µM.

Compound `C[C@H](O)[C@H]1CCc2c(cn(C)c2C(=O)Nc2ccc(F)c(C(F)F)c2)S(=O)(=O)N1` [Compound 103, (3R)—N-[3-(difluoromethyl)-4-fluoro-phenyl]-3-[(1S)-1-hydroxyethyl]-7-methyl-1,1-dioxo-2,3,4,5-tetrahydropyrrolo[3,4-f]thiazepine-6-carboxamide] returned a melting point of 274.7 °C. The half-maximal effective concentration (EC50) in series [1] (setting [3]) was 6 nM. Besides, in series [2], the cytotoxic concentration (CC50) at 4 days is over 25 µM.

In turn, `Cc1cccc(C2(C)COc3c(cn(C)c3C(=O)Nc3ccc(F)c(F)c3)S(=O)(=O)N2)n1` (single isomer, unassigned) [Compound 168a, N-(3,4-difluorophenyl)-3,7-dimethyl-3-(6-methyl-2-pyridyl)-1,1-dioxo-2,4-dihydropyrrolo[3,4-b][1,4,5]oxathiazepine-6-carboxamide] returned a melting point of 221.9 °C. In series [1], the concentration giving a half-maximal response (EC50) is over 125 nM. In series [2], this compound came in with a CC50 at 4 days of over 25 µM.

`Cn1cc2c(c1C(=O)Nc1ccc(F)c(F)c1)OCC(C)(Cc1ccncc1)NS2(=O)=O` (stereo not drawn) [Compound 191, N-(3,4-difluorophenyl)-3,7-dimethyl-1,1-dioxo-3-(4-pyridylmethyl)-2,4-dihydropyrrolo[3,4-b][1,4,5]oxathiazepine-6-carboxamide] came in with a melting point of 276 °C. The concentration giving a half-maximal response (EC50) in series [1] (setting [3]) turned out to be 10 nM. The compound further came in with a half-maximal cytotoxic concentration (CC50) at 4 days in series [2] of over 25 µM.

With `Cn1ccc(C2(C)COc3c(cn(C)c3C(=O)Nc3ccc(F)c(F)c3)S(=O)(=O)N2)n1` (single isomer, unassigned) [Compound 192a, N-(3,4-difluorophenyl)-3,7-dimethyl-3-(1-methylpyrazol-3-yl)-1,1-dioxo-2,4-dihydropyrrolo[3,4-b][1,4,5]oxathiazepine-6-carboxamide], the melting point came out at 208.7 °C. In series [1] (setting [3]), the EC50 was 36 nM. In series [2], this compound registered a CC50 at 4 days of over 25 µM.

In turn, `Cc1cccc(C2(C)COc3c(cn(C)c3C(=O)Nc3ccc(F)c(C(F)F)c3)S(=O)(=O)N2)n1` (racemic) [Compound 177, N-[3-(difluoromethyl)-4-fluoro-phenyl]-3,7-dimethyl-3-(6-methyl-2-pyridyl)-1,1-dioxo-2,4-dihydropyrrolo[3,4-b][1,4,5]oxathiazepine-6-carboxamide] registered a melting point of 210.2 °C. The EC50 in series [1] (setting [3]) amounted to 8 nM. In series [2], this compound had a CC50 at 4 days of over 25 µM.

Take `Cn1cc2c(c1C(=O)Nc1ccc(F)c(F)c1)OCC(C)(Cc1cccnc1)NS2(=O)=O` (racemic) [Compound 199, N-(3,4-difluorophenyl)-3,7-dimethyl-1,1-dioxo-3-(3-pyridylmethyl)-2,4-dihydropyrrolo[3,4-b][1,4,5]oxathiazepine-6-carboxamide]: the melting point was 268.3 °C. For the same compound, the 50% effective concentration (EC50) in series [1] (setting [3]) was determined as 15 nM. For the same compound, the half-maximal cytotoxic concentration (CC50) at 4 days in series [2] was over 25 µM.

For the compound `Cn1cncc1CC1(C)COc2c(cn(C)c2C(=O)Nc2ccc(F)c(F)c2)S(=O)(=O)N1` (stereo not drawn) [Compound 174, N-(3,4-difluorophenyl)-3,7-dimethyl-3-[(3-methylimidazol-4-yl)methyl]-1,1-dioxo-2,4-dihydropyrrolo[3,4-b][1,4,5]oxathiazepine-6-carboxamide], the melting point is 265.5 °C. The 50% effective concentration (EC50) in series [1] (setting [3]) is 7 nM. Moreover, the CC50 at 4 days in series [2] is over 25 µM.

As for `Cc1cccc(CC2(C)COc3c(cn(C)c3C(=O)Nc3ccc(F)c(F)c3)S(=O)(=O)N2)n1` (racemic) [Compound 172, N-(3,4-difluorophenyl)-3,7-dimethyl-3-[(6-methyl-2-pyridyl)methyl]-1,1-dioxo-2,4-dihydropyrrolo[3,4-b][1,4,5]oxathiazepine-6-carboxamide], the melting point came out at 206 °C. Besides, in series [1] (setting [3]), the concentration for a half-maximal effect (EC50) was 74 nM. This compound also returned a CC50 at 4 days in series [2] of over 25 µM.

Take `C[C@H]1CCc2c(cn(C)c2C(=O)Nc2ccc(F)c(C#N)c2F)S(=O)(=O)N1` [Compound 157, (3S)—N-(3-cyano-2,4-difluoro-phenyl)-3,7-dimethyl-1,1-dioxo-2,3,4,5-tetrahydropyrrolo[3,4-f]thiazepine-6-carboxamide]: the melting point came to 247.5 °C. Moreover, the EC50 in series [1] (setting [3]) was 17 nM. In addition, the CC50 at 4 days in series [2] is over 25 µM.

The compound `Cn1cc2c(c1C(=O)Nc1ccc(F)c(F)c1)OCC(C)(Cc1ccc(Br)nc1)NS2(=O)=O` (stereo not drawn) [Compound 171, 3-[(6-bromo-3-pyridyl)methyl]-N-(3,4-difluorophenyl)-3,7-dimethyl-1,1-dioxo-2,4-dihydropyrrolo[3,4-b][1,4,5]oxathiazepine-6-carboxamide] gave a melting point of 259.2 °C. Besides, in series [1] (setting [3]), the EC50 stood at 8 nM. In series [2], this compound gave a CC50 at 4 days of over 25 µM.

`C[C@H](O)[C@H]1C=Cc2c(cn(C)c2C(=O)Nc2cc(F)c(F)c(F)c2)S(=O)(=O)N1` [Compound 98, (3R)-3-[(1S)-1-hydroxyethyl]-7-methyl-1,1-dioxo-N-(3,4,5-trifluorophenyl)-2,3-dihydropyrrolo[3,4-f]thiazepine-6-carboxamide] yielded a melting point of 244 °C. Further, the EC50 in series [1] (setting [3]) came to 8 nM. Also, in series [2], the 50% cytotoxic concentration (CC50) at 4 days was over 25 µM.

Compound `Cn1cc2c(c1C(=O)Nc1ccc(F)c(C(F)F)c1)OC[C@@H](C(C)(C)O)NS2(=O)=O` [Compound 101, (3S)—N-[3-(difluoromethyl)-4-fluoro-phenyl]-3-(1-hydroxy-1-methyl-ethyl)-7-methyl-1,1-dioxo-3,4-dihydro-2H-pyrrolo[3,4-b][1,4,5]oxathiazepine-6-carboxamide] yielded a melting point of 214.4 °C. Besides, the EC50 in series [1] (setting [3]) turned out to be 14 nM. In addition, the cytotoxic concentration (CC50) at 4 days in series [2] was over 25 µM.

`C[C@H](O)[C@H]1C=Cc2c(cn(C)c2C(=O)Nc2ccc(F)c(Cl)c2)S(=O)(=O)N1` [Compound 194, (3R)—N-(3-chloro-4-fluoro-phenyl)-3-[(1S)-1-hydroxyethyl]-7-methyl-1,1-dioxo-2,3-dihydropyrrolo[3,4-f]thiazepine-6-carboxamide] gave a melting point of 211.3 °C. The half-maximal effective concentration (EC50) in series [1] (setting [3]) turned out to be 6 nM. The compound also showed a CC50 at 4 days in series [2] of over 25 µM.

For the compound `C[C@H](O)[C@H]1CCc2c(cn(C)c2C(=O)Nc2ccc(F)c(Cl)c2)S(=O)(=O)N1` [Compound 193, (3R)—N-(3-chloro-4-fluoro-phenyl)-3-[(1S)-1-hydroxyethyl]-7-methyl-1,1-dioxo-2,3,4,5-tetrahydropyrrolo[3,4-f]thiazepine-6-carboxamide], the melting point stood at 290.8 °C. For the same compound, the EC50 in series [1] (setting [3]) stood at 6 nM. Moreover, the CC50 at 4 days in series [2] was over 25 µM.

`Cn1cc2c(c1C(=O)Nc1ccc(F)c(F)c1)OCC(C)(c1ncco1)NS2(=O)=O` (single isomer, unassigned) [Compound 160a, N-(3,4-difluorophenyl)-3,7-dimethyl-3-oxazol-2-yl-1,1-dioxo-2,4-dihydropyrrolo[3,4-b][1,4,5]oxathiazepine-6-carboxamide] came in with a melting point of 239.5 °C. For the same compound, the EC50 in series [1] was 77 nM. Besides, in series [2], the CC50 at 4 days is over 25 µM.

For the compound `Cn1cc2c(c1C(=O)Nc1ccc(F)c(F)c1)OCC(C)(c1ccccc1)NS2(=O)=O` (stereo not drawn) [Compound 125, N-(3,4-difluorophenyl)-3,7-dimethyl-1,1-dioxo-3-phenyl-2,4-dihydropyrrolo[3,4-b][1,4,5]oxathiazepine-6-carboxamide], the melting point came to 256.6 °C. In addition, the half-maximal effective concentration (EC50) in series [1] (setting [3]) is 7 nM. Besides, the CC50 at 4 days in series [2] was over 25 µM.

The compound `Cn1cc2c(c1C(=O)Nc1ccc(F)c(F)c1)OC[C@@H](C(C)(C)F)NS2(=O)=O` [Compound 121, (3S)—N-(3,4-difluorophenyl)-3-(1-fluoro-1-methyl-ethyl)-7-methyl-1,1-dioxo-3,4-dihydro-2H-pyrrolo[3,4-b][1,4,5]oxathiazepine-6-carboxamide] registered a melting point of 239.8 °C. In series [1] (setting [3]), the EC50 stood at 29 nM. The CC50 at 4 days in series [2] is over 25 µM.

The record behind these values is patent publication US10875876B2, “Cyclized sulfamoylarylamide derivatives and the use thereof as medicaments for the treatment of hepatitis B” (priority 2015, dated 2020).
